# Data as given in patent US20140227311A1, “Method for Removing Immunosuppressive Properties of HIV Envelope Glycoproteins” (priority 2011, published 2014).
# Ends that are not written are not given here.
# Tested on: CTLL-2 cells
# Type: cell-based
# Conditions: dimerized peptides (disulfide); 24 h; wt effect at concentrations of 75 or 100 uM; FIG. 1
sequence,measurement,value
"LQARILAVERYLKDQQLLGIWGCGGEKEKEK (also: dimerized) [wt ISD, dimerized wild-type ISD peptide with GGEKEKEK tail]",inhibition of the proliferation of CTLL2 cells,inhibits the proliferation of the CTLL2 cells at concentrations of 75 or 100 uM
